# Laboratory results reported in ChEMBL document CHEMBL1909046, “DrugMatrix in vitro pharmacology data”.
# Tests used:
# [1] = target: T1, Vasoactive intestinal polypeptide receptor 1 (Homo sapiens, UniProt P32241); format: cell membranes, Membrane; conditions: ht-29; further: in other assays of this panel Not Active means under 50% inhibition at 10 µM
# T1 sequence (P32241 whole entry): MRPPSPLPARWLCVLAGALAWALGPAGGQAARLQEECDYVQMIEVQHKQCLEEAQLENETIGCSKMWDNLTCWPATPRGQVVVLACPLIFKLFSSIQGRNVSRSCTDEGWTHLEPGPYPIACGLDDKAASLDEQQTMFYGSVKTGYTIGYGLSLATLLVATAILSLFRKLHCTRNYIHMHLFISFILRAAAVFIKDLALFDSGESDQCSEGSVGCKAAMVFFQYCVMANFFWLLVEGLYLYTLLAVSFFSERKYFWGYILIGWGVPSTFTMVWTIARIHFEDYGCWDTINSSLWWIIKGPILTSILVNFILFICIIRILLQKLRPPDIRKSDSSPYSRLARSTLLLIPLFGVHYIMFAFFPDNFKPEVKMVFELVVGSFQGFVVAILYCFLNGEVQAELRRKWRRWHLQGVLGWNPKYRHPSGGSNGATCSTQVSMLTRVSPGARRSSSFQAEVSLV
# [2] = target: T2, C-C chemokine receptor type 4 (Homo sapiens, UniProt P51679); format: cell membranes, Membrane; conditions: chem-1; further: in other assays of this panel Not Active means under 50% inhibition at 10 µM
# T2 sequence (P51679 whole entry): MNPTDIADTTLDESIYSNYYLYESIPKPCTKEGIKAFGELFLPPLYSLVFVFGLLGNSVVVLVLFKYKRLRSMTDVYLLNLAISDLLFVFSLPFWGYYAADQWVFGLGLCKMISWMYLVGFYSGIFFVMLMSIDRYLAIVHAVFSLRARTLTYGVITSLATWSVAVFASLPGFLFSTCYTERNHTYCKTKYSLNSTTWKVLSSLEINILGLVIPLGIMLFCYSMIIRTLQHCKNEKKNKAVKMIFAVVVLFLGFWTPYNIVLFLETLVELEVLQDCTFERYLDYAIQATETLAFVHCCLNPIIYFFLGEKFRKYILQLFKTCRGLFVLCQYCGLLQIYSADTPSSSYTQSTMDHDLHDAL
# [3] = target: Prostaglandin G/H synthase 1 (Homo sapiens, UniProt P23219); assay: biochemical; format: tissue-based, Platelet; conditions: platelet;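 further: inhibition of COX-1 enzyme activity, with arachidonic acid supplied as substrate; in other assays of this panel Not Active means under 50% inhibition at 10 µM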
# Melanocortin receptor 5 = Melanocortin receptor 5 (Homo sapiens, UniProt P33032); format: cell membranes, HEK293, Membrane; further: in other assays of this panel Not Active means under 50% inhibition at 10 µM
# [4] = target: T3, Neuropeptide Y receptor type 1 (Homo sapiens, UniProt P25929); format: cell membranes, Membrane; conditions: sk-n-mc; further: in other assays of this panel Not Active means under 50% inhibition at 10 µM
# T3 sequence (P25929 whole entry): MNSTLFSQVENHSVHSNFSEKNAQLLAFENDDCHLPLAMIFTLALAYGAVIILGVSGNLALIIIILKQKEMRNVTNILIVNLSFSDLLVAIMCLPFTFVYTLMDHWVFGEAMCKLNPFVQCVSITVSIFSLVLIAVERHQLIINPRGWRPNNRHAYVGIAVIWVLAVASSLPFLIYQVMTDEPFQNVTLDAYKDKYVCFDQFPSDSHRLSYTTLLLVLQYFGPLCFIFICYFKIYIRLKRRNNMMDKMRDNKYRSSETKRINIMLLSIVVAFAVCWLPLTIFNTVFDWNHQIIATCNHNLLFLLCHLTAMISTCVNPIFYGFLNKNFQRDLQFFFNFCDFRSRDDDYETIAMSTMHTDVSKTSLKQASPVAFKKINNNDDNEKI
# Progesterone receptor = target: T4, Progesterone receptor (Bos taurus, UniProt Q690N0); assay: DRUGMATRIX: Progesterone radioligand binding (ligand: [3H] R-5020); format: tissue-based, Uterus; conditions: Not Active = under 50% inhibition at 10 µM
# T4 sequence (Q690N0 whole entry): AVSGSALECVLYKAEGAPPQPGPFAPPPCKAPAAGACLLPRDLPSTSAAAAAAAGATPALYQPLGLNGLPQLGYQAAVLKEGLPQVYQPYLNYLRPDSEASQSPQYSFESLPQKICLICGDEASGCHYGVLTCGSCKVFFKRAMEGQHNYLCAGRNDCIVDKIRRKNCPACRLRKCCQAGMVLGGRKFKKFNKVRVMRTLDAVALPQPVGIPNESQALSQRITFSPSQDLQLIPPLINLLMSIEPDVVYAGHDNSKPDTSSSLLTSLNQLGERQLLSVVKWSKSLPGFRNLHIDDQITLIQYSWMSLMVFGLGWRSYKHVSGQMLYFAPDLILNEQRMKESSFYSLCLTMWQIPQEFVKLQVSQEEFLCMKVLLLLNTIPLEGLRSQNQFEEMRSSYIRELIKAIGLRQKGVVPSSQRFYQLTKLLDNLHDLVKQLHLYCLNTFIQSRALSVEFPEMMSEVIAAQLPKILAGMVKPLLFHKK
# [5] = target: T5, 5-hydroxytryptamine receptor 1A (Rattus norvegicus, UniProt P19327); format: cell membranes, CHO-K1, Membrane; conditions: for Ki: read-out: Ki
# T5 sequence (P19327 whole entry): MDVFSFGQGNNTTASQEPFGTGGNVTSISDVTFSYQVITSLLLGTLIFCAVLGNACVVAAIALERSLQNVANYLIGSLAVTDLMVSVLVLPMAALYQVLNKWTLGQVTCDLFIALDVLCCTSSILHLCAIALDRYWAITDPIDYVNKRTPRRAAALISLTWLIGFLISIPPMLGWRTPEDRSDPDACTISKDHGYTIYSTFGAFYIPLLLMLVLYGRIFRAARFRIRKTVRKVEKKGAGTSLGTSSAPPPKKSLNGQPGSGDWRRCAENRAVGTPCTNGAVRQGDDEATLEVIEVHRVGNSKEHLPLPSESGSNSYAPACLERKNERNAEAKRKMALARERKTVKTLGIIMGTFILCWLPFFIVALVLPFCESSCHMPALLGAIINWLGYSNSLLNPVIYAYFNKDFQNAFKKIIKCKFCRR
# [6] = DRUGMATRIX: beta-Lactamase enzyme inhibition (substrate: Nitrocefin); parameters: species or system Bacillus cereus; conditions: Not Active = under 50% inhibition at 10 µM
# [7] = DRUGMATRIX: Calcium Channel Type L, Dihydropyridine radioligand binding (ligand: [3H] Nitrendipine); format: cell membranes, Rattus norvegicus, Wistar, Cerebral cortex, Membrane; conditions: Not Active = under 50% inhibition at 10 µM
# [8] = DRUGMATRIX: Interleukin IL-1 radioligand binding (ligand: [125I] interleukin 1beta); format: cell membranes, Membrane; conditions: nih3t3; Not Active = under 50% inhibition at 10 µM
# [9] = DRUGMATRIX: Leukotriene, BLT (LTB4) radioligand binding (ligand: [3H]LTB4); format: cell membranes, Membrane; conditions: u-937; Not Active = under 50% inhibition at 10 µM
# Melanocortin receptor 3 = Melanocortin receptor 3 (Homo sapiens, UniProt P41968); format: cell membranes, Membrane; conditions: hek293; further: in other assays of this panel Not Active means under 50% inhibition at 10 µM
# [10] = target: Delta-type opioid receptor (Homo sapiens, UniProt P41143); format: cell membranes, HEK293, Membrane; conditions: hek293; further: in other assays of this panel Not Active means under 50% inhibition at 10 µM
# [11] = target: Beta-1 adrenergic receptor (Homo sapiens, UniProt P08588); assay: DRUGMATRIX: Adrenergic beta1 radioligand binding (ligand: [125I] Cyanopindolol); format: cell membranes, CHO-K1, Membrane; conditions: cho-k1; Not Active = under 50% inhibition at 10 µM
# Chain of Beta-1 adrenergic receptor (P08588 whole entry): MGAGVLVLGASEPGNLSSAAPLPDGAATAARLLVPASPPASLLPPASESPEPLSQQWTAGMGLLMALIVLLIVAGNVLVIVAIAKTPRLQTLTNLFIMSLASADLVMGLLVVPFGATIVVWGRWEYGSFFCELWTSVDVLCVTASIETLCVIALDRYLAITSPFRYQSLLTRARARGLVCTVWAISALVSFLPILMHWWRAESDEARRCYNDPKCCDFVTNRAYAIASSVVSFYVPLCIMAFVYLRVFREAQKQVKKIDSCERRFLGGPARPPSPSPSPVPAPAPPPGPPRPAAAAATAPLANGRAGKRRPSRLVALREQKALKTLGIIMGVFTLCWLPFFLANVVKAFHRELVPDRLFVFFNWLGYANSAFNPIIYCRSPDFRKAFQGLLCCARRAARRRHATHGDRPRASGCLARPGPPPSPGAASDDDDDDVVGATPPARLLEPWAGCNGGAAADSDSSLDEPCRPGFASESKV
# Chain of Prostaglandin G/H synthase 1 (P23219 whole entry): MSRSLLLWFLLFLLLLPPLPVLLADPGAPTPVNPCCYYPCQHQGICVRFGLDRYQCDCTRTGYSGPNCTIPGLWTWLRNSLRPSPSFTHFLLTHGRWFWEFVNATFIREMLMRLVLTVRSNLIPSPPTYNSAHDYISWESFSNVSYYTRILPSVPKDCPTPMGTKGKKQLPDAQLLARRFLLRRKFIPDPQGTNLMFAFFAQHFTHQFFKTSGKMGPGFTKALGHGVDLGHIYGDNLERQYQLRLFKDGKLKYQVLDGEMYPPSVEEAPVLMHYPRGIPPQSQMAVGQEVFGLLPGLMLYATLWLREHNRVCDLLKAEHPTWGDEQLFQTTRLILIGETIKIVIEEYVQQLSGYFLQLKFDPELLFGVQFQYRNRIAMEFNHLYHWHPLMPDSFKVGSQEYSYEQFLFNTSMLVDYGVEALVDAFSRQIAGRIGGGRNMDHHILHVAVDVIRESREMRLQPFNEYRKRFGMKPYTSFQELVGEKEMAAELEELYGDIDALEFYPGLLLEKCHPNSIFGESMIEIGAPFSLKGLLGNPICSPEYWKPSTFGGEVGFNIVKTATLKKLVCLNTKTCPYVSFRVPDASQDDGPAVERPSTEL
# Chain of Melanocortin receptor 3 (P41968 whole entry): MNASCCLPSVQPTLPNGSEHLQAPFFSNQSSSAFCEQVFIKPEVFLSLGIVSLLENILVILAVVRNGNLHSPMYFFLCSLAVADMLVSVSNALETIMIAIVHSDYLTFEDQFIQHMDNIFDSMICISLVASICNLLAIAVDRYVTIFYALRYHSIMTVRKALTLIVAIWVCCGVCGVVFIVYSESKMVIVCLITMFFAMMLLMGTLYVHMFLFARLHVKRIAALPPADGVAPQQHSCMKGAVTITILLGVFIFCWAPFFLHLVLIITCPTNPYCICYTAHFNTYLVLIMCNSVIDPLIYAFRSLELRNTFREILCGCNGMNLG
# Chain of Melanocortin receptor 5 (P33032 whole entry): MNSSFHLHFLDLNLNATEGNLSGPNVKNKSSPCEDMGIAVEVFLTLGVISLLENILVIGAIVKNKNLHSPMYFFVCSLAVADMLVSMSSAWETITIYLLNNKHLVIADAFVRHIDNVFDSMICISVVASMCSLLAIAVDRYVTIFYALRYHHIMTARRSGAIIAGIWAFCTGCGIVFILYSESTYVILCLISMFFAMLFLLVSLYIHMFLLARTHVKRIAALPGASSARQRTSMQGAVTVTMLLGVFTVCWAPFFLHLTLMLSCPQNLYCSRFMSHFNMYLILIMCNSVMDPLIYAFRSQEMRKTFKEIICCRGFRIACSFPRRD
# Chain of Delta-type opioid receptor (P41143 whole entry): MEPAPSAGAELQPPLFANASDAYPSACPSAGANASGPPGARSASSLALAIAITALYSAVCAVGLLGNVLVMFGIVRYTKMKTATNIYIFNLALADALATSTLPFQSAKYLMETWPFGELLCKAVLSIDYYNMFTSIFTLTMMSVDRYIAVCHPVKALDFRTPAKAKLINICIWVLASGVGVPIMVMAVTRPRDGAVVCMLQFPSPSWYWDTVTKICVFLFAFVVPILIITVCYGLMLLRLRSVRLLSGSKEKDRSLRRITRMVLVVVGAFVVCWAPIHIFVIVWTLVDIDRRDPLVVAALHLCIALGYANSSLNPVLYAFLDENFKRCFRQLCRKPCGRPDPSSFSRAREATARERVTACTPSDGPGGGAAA
Compound,IC50 [1],IC50 [2],IC50 [3],IC50 [4],IC50 (Progesterone receptor),IC50 ([5]; read-out: IC50) [nM],Ki [5] [nM],IC50 [6],Ki [6],IC50 [7],Ki [7],IC50 [8],Ki [8],IC50 [9],Ki [9],IC50 (Melanocortin receptor 3),IC50 (Melanocortin receptor 5; hek293),IC50 [10],IC50 [11],IC50 ([5]; cho-k1),also measured
COc1ccc(CCN2CCC(Nc3nc4ccccc4n3Cc3ccc(F)cc3)CC2)cc1 [ASTEMIZOLE],Not Active,Not Active,Not Active,Not Active,Not Active,767,438,,,,,,,,,,,,,,IC50 (Melanocortin receptor 5; read-out: IC50): 2260 nM; Ki (Melanocortin receptor 5; read-out: Ki): 2120 nM
CC(CCc1ccccc1)NCC(O)c1ccc(O)c(C(N)=O)c1 (stereo not given) [LABETALOL],Not Active,Not Active,Not Active,Not Active,Not Active,393,225,Not Active,Not Active,Not Active,Not Active,Not Active,Not Active,Not Active,Not Active,Not Active,Not Active,Not Active,,,
CN1[C@@H]2CC[C@H]1C[C@@H](OC(=O)c1c[nH]c3ccccc13)C2 [TROPISETRON],Not Active,Not Active,Not Active,Not Active,,,,Not Active,Not Active,Not Active,Not Active,Not Active,Not Active,Not Active,Not Active,Not Active,Not Active,Not Active,Not Active,Not Active,
O=C(CCCN1CCC(O)(c2ccc(Cl)cc2)CC1)c1ccc(F)cc1 [HALOPERIDOL],Not Active,Not Active,Not Active,Not Active,,,,,,,,,,,,Not Active,Not Active,Not Active,Not Active,Not Active,
CC(C)(C)NCC(O)c1cc(O)cc(O)c1 (stereo not given) [TERBUTALINE],Not Active,Not Active,Not Active,Not Active,Not Active,,,Not Active,Not Active,Not Active,Not Active,Not Active,Not Active,Not Active,Not Active,Not Active,Not Active,Not Active,,Not Active,
